Here are results for two molecules from patent US20100167925A1, “Substituted Azolin-2-yl-Amino Compounds” (BASF SE, priority 2006, published 2010).

Data set [1] has as its system Aphis gossypii. The data set can be described thus: Cotton aphid (Aphis gossypii) mortality on dipped cotton plants. The class given is in vivo. The note with it: 120 h, cotton plants in cotyledon stage dipped into test solution, aphid mortality determined after 5 days, read-out: mortality in comparison with untreated controls. How it is done: I. Cotton Aphid (Aphis gossypii)
Cotton plants in the cotyledon stage (variety ‘Delta Pine’) are infested with approximately 100 laboratory-reared aphids by placing infested leaf sections on top of the test plants. The leaf sections are removed after 24 hours. The cotyledons of the intact plants are dipped into gradient solutions of the test compound. Aphid mortality on the treated plants, relative to mortality on check plants, is determined after 5 days.

Data set [2] relates to Myzus persicae. The data set can be described thus: Green peach aphid (Myzus persicae) mortality on dipped pepper plants. In kind it is in vivo. Conditions: 120 h, pepper plants in 2nd leaf-pair stage dipped into test solution, aphid mortality determined after 5 days, read-out: mortality in comparison with untreated controls. The protocol:
I.b. Green Peach Aphid (Myzus persicae)
Pepper plants in the 2nd leaf-pair stage (variety ‘California Wonder’) are infested with approximately 40 laboratory-reared aphids by placing infested leaf sections on top of the test plants. The leaf sections are removed after 24 hours. The leaves of the intact plants are dipped into gradient solutions of the test compound. Aphid mortality on the treated plants, relative to mortality on check plants, is determined after 5 days.

Consider `CC1(C)Cc2ccccc2C1NC1=NCCS1` (stereo not drawn) [Example 22, (4,5-Dihydro-thiazol-2-yl)-(2,2-dimethyl-indan-1-yl)-amine], for which the mortality at 300 ppm in data set [1] and in data set [2] was over 70% throughout.

Regarding `CC1(C)Cc2ccccc2C1N=C1SCCN1C1=NCCS1` (stereo not drawn), the melting point was 161 to 163 °C.

The mortality is the percentage killed. One may read the melting point as the temperature of the solid-liquid transition.
